Literature values as cited in patent US10716831B2, “Methods for inhibiting infectious peritonitis” (priority 2014, dated 2020).

Columns and labels:
[1] = tested on: Staphylococcus, Streptococcus, Neisseria, Escherichia, Proteus, Serratia, Salmonella, Shigella, Pseudomonas, Haemophilus and Vibrio; settings: aerobic genera
[2] = tested on: strains of organisms from the susceptible genera
[3] = intraperitoneal compared with intravenous administration; Tobudic et al 2012
[4] = tested on: polymorphonuclear leukocytes
[5] = tested on: bacteria of the B. fragilis group
[6] = tested on: resistant bacterial strains; settings: controlled clinical trials, orally or intravenously administered; overall
[7] = tested on: Klebsiella and Enterobacter spp.
[8] = tested on: Peptostreptococcus (including Peptoniphilus, Finegoldia and Anaerococcus) and Fusobacterium; settings: anaerobic genera
Pseudomonas aeruginosa = settings: controlled clinical trials, orally or intravenously administered, maximum
infectious peritonitis = settings: combination with imipenem; Pachón-Ibáñez et al 2011
[9] = third and last day of treatment
peritoneal macrophages = settings: intraperitoneal; Selgas et al 1996
[10] = tested on: non-traumatic generalized abdominal sepsis; settings: subcutaneous, with systemic antibiotics; Orozco et al 2006
[11] = tested on: cecal ligation and puncture; settings: mice, subcutaneous injection; Gennari et al 1994
monocytes = settings: in vitro; Volk et al 1991
bacterial peritonitis = settings: mice, intraperitoneal for 5 days; Austin et al 1995
[12] = in vivo
[13] = not given; remark: listed apart in the source
[14] = tested on: peritonitis induced by cecal ligation and puncture; settings: rats, systemic; Toda et al 1994
fecal peritonitis = settings: mice, prophylactic administration; Barsig et al 1996

For C[C@@H]1O[C@@H]1P(=O)(O)O [fosfomycin, [(2R,3S)-3-methyloxiran-2-yl]phosphonic acid], the antibacterial activity [1] is given as “highly active”, the “tested strains showing synergistic effect” value ([2]; early studies, various antibiotic combinations) is given as 70-100% and the synergy rates ([2]; subsequent more extensive studies) is given as 36-74%. The intraperitoneal levels [3] was “superior intraperitoneal levels”, the eosinophilia (Gobernado 2003) was 0.2% and the “transient rashes (allergy)” value (Gobernado 2003) was 0.3 % of cases. For the same molecule, the “transiently raised liver enzymes” value (Gobernado 2003) was 0.3 % of cases, the “toxicity to mammalian cells and organs” value (fosfomycin disodium at intravenous doses of up to 0.5 g/kg/day in human patients) was “remarkably non-toxic” and the “concentration in polymorphonuclear leukocytes relative to extracellular fluid” value [4] was “twice those of the extracellular fluid”. The antibacterial activity [5] was “not against”, the “appearance of resistant bacterial strains” value [6] was 3.0% and the antibacterial activity [7] was “active”. The antibacterial activity [8] was “active”, the “appearance of resistant bacterial strains” value (Pseudomonas aeruginosa) was 15% and the “synergy and in-vivo efficacy with imipenem” value (infectious peritonitis) was “showed synergy and high in-vivo efficacy”.

In the case of “GM-CSF: cytokine of the colony-stimulating factor family; mature human protein SEQ ID NO: 2”, the minor flu-like symptoms [9] is given as 2 of 8, the peritoneal macrophage numbers (peritoneal macrophages) is given as “large increase” and the “peritoneal transport of water or solutes” value (peritoneal macrophages) is given as “did not affect”. The “rate of infectious complications and length of hospitalization” value [10] was “reduced”, the mortality [11] was “significantly reduced” and the “loss of HLA-DR antigen expression to <20%” value (monocytes) was “reversed”. For the same molecule, the survival (bacterial peritonitis) was “improved survival”.

For C[C@@H]1O[C@@H]1P(=O)(O)O [Fosfomycin disodium], the “local or oral tolerability” value [12] is listed as “locally irritant if un-neutralized”, the solubility in water [13] is listed as “highly soluble in water” and the “pH of 5% solution” value [13] is listed as 9.0-10.5.

For C[C@@H]1O[C@@H]1P(=O)(O)O.NC(CO)(CO)CO [Fosfomycin trometamol], the “local or oral tolerability” value [12] is listed as “well tolerated when given orally”, the solubility in water [13] is listed as “highly soluble in water” and the “pH of 5% solution” value [13] is listed as 3.5-5.5.

B1: recombinant murine GM-CSF: recombinant murine GM-CSF used in rat and mouse peritonitis studies (protein, UniProt P01587 18-141, looked up)
Granulocyte-macrophage …: APTRSPITVTRPWKHVEAIKEALNLLDDMPVTLNEEVEVVSNEFSFKKLTCVQTRLKIFEQGLRGNFTKLKGALNMTASYYQTYCPPTPETDCETQVTTYADFIDSLKTFLTDIPFECKKPGQK
For B1, the survival rate [14] is given as “did not improve” and the “leukocyte numbers and protection” value (fecal peritonitis) is given as “neither augmented leukocyte numbers nor protected mice”.
